Assay results as given in patent publication US9283222B2 (priority 2006, dated 2016).

Target: Recombinant Human Poly(ADP-Ribose) Polymerase (PARP), PARP-1 (Homo sapiens (Human), UniProt P09874)
Conditions: read-out: PARP-1 (Ki); Table 1; text calls the values EC50s

Chain of Recombinant Human Poly(ADP-Ribose) Polymerase (PARP), PARP-1 (P09874 whole entry): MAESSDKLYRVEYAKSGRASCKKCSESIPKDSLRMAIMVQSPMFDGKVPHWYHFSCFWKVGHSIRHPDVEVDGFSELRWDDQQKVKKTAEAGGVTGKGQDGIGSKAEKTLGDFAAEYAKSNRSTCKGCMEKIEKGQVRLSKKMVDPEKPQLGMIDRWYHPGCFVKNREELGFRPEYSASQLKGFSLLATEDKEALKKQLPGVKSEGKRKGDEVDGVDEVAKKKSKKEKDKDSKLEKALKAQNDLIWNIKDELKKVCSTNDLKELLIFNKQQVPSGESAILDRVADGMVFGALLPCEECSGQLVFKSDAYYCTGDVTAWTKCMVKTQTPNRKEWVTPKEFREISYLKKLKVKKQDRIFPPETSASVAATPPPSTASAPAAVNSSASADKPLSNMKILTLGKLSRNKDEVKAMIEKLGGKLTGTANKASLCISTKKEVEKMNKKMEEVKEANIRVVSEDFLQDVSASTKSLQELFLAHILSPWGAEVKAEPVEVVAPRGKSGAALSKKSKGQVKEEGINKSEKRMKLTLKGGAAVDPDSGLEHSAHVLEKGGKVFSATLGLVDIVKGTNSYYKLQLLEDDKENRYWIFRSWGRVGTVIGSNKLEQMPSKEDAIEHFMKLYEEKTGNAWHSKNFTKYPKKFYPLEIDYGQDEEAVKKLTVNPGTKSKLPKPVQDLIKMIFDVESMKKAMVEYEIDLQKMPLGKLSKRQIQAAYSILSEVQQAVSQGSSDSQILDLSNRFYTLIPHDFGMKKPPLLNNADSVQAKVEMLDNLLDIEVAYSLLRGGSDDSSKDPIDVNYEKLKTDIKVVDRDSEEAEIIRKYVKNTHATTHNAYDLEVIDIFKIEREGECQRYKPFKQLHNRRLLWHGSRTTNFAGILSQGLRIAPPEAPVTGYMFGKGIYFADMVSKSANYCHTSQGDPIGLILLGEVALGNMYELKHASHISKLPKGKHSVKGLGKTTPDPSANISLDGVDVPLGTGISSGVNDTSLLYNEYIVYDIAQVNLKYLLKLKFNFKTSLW

Compound | Ki [nM]
O=C(Nc1cccc(Cc2n[nH]c(=O)c3c2CCCC3)c1)c1cscn1 [Example 205, N-(3-((4-oxo-3,4,5,6,7,8-hexahydrophthalazin-1-yl)methyl)phenyl)-1,3-thiazole-4-carboxamide] | 176
Cc1c(C(=O)Nc2cc(Cc3n[nH]c(=O)c4c3CCCC4)ccc2F)cnn1-c1ccccc1 [Example 454, N-(2-fluoro-5-((4-oxo-3,4,5,6,7,8-hexahydrophthalazin-1-yl)methyl)phenyl)-5-methyl-1-phenyl-1H-pyrazole-4-carboxamide] | 16
O=C(NCCc1ccncc1)c1cccc(Cc2n[nH]c(=O)c3c2CCCC3)c1 [Example 381, 3-((4-oxo-3,4,5,6,7,8-hexahydrophthalazin-1-yl)methyl)-N-(2-pyridin-4-ylethyl)benzamide] | 67
CSc1ccc(NC(=O)c2cccc(Cc3n[nH]c(=O)c4c3CCCC4)c2)cc1 [Example 361, N-(4-(methylthio)phenyl)-3-((4-oxo-3,4,5,6,7,8-hexahydrophthalazin-1-yl)methyl)benzamide] | 76
O=C(Nc1cccc(Cc2n[nH]c(=O)c3c2CCCC3)c1)c1ccccc1C(=O)c1ccccc1 [Example 241, 2-benzoyl-N-(3-((4-oxo-3,4,5,6,7,8-hexahydrophthalazin-1-yl)methyl)phenyl)benzamide] | 1450
CCC(C)C(C(=O)Nc1cccc(Cc2n[nH]c(=O)c3c2CCCC3)c1)c1ccccc1 (stereo not drawn) [Example 170, 3-methyl-N-(3-((4-oxo-3,4,5,6,7,8-hexahydrophthalazin-1-yl)methyl)phenyl)-2-phenylpentanamide] | 1700
CC(C)S(=O)(=O)Nc1cccc(Cc2n[nH]c(=O)c3c2CCCC3)c1 [Example 115, N-(3-((4-oxo-3,4,5,6,7,8-hexahydrophthalazin-1-yl)methyl)phenyl)propane-2-sulfonamide] | 157
COC(=O)c1ccc(Cc2n[nH]c(=O)c3c2CCCC3)cn1 [Example 86, methyl 5-((4-oxo-3,4,5,6,7,8-hexahydrophthalazin-1-yl)methyl)pyridine-2-carboxylate] | 390
CC(Cc1n[nH]c(=O)c2c1CCCC2)c1cccc(C(=O)O)c1 (stereo not drawn) [Example 288, 3-(1-methyl-2-(4-oxo-3,4,5,6,7,8-hexahydrophthalazin-1-yl)ethyl)benzoic acid] | 431
CC(Cc1n[nH]c(=O)c2c1CCCC2)c1ccc(F)c(-c2cccc(C(N)=O)c2)c1 (stereo not drawn) [Example 295, 2′-fluoro-5′-(1-methyl-2-(4-oxo-3,4,5,6,7,8-hexahydrophthalazin-1-yl)ethyl)-1,1′-biphenyl-3-carboxamide] | 912
O=C1CCN1c1ccc(Cc2n[nH]c(=O)c3c2CCCC3)cn1 [Example 105, 4-((6-(2-oxoazetidin-1-yl)pyridin-3-yl)methyl)-5,6,7,8-tetrahydrophthalazin-1(2H)-one] | 725
Cc1cc(C(=O)Nc2cccc(Cc3n[nH]c(=O)c4c3CCCC4)c2)c(C)o1 [Example 195, 2,5-dimethyl-N-(3-((4-oxo-3,4,5,6,7,8-hexahydrophthalazin-1-yl)methyl)phenyl)-3-furamide] | 177
NC(=O)C1CCCN(C(=O)c2cc(Cc3n[nH]c(=O)c4c3CCCC4)ccc2F)C1 (stereo not drawn) [Example 500, 1-{2-fluoro-5-[(4-oxo-3,4,5,6,7,8-hexahydrophthalazin-1-yl)methyl]benzoyl}piperidine-3-carboxamide] | 3
Nc1cc(Cc2n[nH]c(=O)c3cccnc23)ccc1F [Example 463, 8-(3-amino-4-fluorobenzyl)pyrido(2,3-d)pyridazin-5(6H)-one] | 1880
CC1(C(=O)Nc2cccc(Cc3n[nH]c(=O)c4c3CCCC4)c2)CC1 [Example 136, 1-methyl-N-(3-((4-oxo-3,4,5,6,7,8-hexahydrophthalazin-1-yl)methyl)phenyl)cyclopropanecarboxamide] | 76

The remaining lines, values ahead:

Ki [nM] | Compound
58 | O=C(NCc1cccnc1)c1cccc(Cc2n[nH]c(=O)c3c2CCCC3)c1 [Example 311, 3-((4-oxo-3,4,5,6,7,8-hexahydrophthalazin-1-yl)methyl)-N-(pyridin-3-ylmethyl)benzamide]
4 | Cn1cncc1C(=O)N1CCCN(C(=O)c2cc(Cc3n[nH]c(=O)c4c3CCCC4)ccc2F)CC1 [Example 637, 4-[4-fluoro-3-({4-[(1-methyl-1H-imidazol-5-yl)carbonyl]-1,4-diazepan-1-yl}carbonyl)benzyl]-5,6,7,8-tetrahydrophthalazin-1(2H)-one]
2.6 | CN(C(=O)c1cc(Cc2n[nH]c(=O)c3c2NCCC3)ccc1F)C1CCN(C(=O)c2cn[nH]c2)CC1 [Example 718, 2-fluoro-N-methyl-5-[(5-oxo-1,2,3,4,5,6-hexahydropyrido[2,3-d]pyridazin-8-yl)methyl]-N-[1-(1H-pyrazol-4-ylcarbonyl)piperidin-4-yl]benzamide]
1.3 | O=C(c1cncnc1)N1CCN(C(=O)c2cc(Cc3n[nH]c(=O)c4c3NCCC4)ccc2F)CC1 [Example 664, 8-(4-fluoro-3-{[4-(pyrimidin-5-ylcarbonyl)piperazin-1-yl]carbonyl}benzyl)-2,3,4,6-tetrahydropyrido[2,3-d]pyridazin-5(1H)-one]
1.1 | O=C(c1cscn1)N1CCN(C(=O)c2cc(Cc3n[nH]c(=O)c4c3CCCC4)ccc2F)CC1 [Example 674, 4-(4-fluoro-3-{[4-(1,3-thiazol-4-ylcarbonyl)piperazin-1-yl]carbonyl}benzyl)-5,6,7,8-tetrahydrophthalazin-1(2H)-one]
8 | O=C(NC1CCN(c2ccccn2)CC1)c1cc(Cc2n[nH]c(=O)c3c2NCCC3)ccc1F [Example 745, 2-fluoro-5-[(5-oxo-1,2,3,4,5,6-hexahydropyrido[2,3-d]pyridazin-8-yl)methyl]-N-(1-pyridin-2-ylpiperidin-4-yl)benzamide]
41 | CN(C(=O)Nc1cc(Cc2n[nH]c(=O)c3c2CCCC3)ccc1F)c1ccccc1 [Example 618, N′-{2-fluoro-5-[(4-oxo-3,4,5,6,7,8-hexahydrophthalazin-1-yl)methyl]phenyl}-N-methyl-N-phenylurea]
3.5 | COC(=O)c1cc(Cc2n[nH]c(=O)c3c2NCCC3)ccc1F [Example 465, methyl 2-fluoro-5-((5-oxo-1,2,3,4,5,6-hexahydropyrido(2,3-d)pyridazin-8-yl)methyl)benzoate]
1.5 | O=C(c1cnccn1)N1CCN(C(=O)c2cc(Cc3n[nH]c(=O)c4c3NCCC4)ccc2F)CC1 [Example 662, 8-(4-fluoro-3-{[4-(pyrazin-2-ylcarbonyl)piperazin-1-yl]carbonyl}benzyl)-2,3,4,6-tetrahydropyrido[2,3-d]pyridazin-5(1H)-one]
3 | COc1ccc(N2CCN(C(=O)c3cc(Cc4n[nH]c(=O)c5c4CCCC5)ccc3F)CC2)cc1 [Example 623, 4-(4-fluoro-3-{[4-(4-methoxyphenyl)piperazin-1-yl]carbonyl}benzyl)-5,6,7,8-tetrahydrophthalazin-1(2H)-one]
1.2 | O=C(c1cc(Cc2n[nH]c(=O)c3c2CCCC3)ccc1F)N1CCN(c2ncncn2)CC1 [Example 669, 4-(4-fluoro-3-{[4-(1,3,5-triazin-2-yl)piperazin-1-yl]carbonyl}benzyl)-5,6,7,8-tetrahydrophthalazin-1(2H)-one]
18 | O=C(Nc1cccc(Cc2n[nH]c(=O)c3c2CCCC3)c1)c1cncs1 [Example 206, N-(3-((4-oxo-3,4,5,6,7,8-hexahydrophthalazin-1-yl)methyl)phenyl)-1,3-thiazole-5-carboxamide]
